Results taken from ChEMBL document CHEMBL5576038, “Design of a novel long-acting dual GLP-1/GIP receptor agonist” (Bioorg Med Chem, 2024).
The source made the active and inactive calls. No cut-off for these calls is given here. Where a SMILES comes first, the peptide text is derived from it. [ ]: non-standard residue; d: D form. The star is where a group is joined. X4 = O=C(O)CCCCCCCCCCCCCCCCCCC(=O)NCCOCCOCC(=O)N[C@@H](CCC(=O)N[C@@H](CCC(=O)N[C@@H](CCCCNC(=O)C*)C(=O)O)C(=O)O)C(=O)O; X3 = O=C(O)CCCCCCCCCCCCCCCCC(=O)NCCOCCOCC(=O)N[C@@H](CCC(=O)N[C@@H](CCC(=O)N[C@@H](CCCCNC(=O)C*)C(=O)O)C(=O)O)C(=O)O; Aib = CC(C)(N)C(=O)O

Experiments:
[1] = target: T1, Gastric inhibitory polypeptide receptor (Homo sapiens, UniProt P48546); assay: Agonist activity at human GIPR expressed in CHO cells assessed as increase in cAMP production incubated for 30 mins by Eu-cAMP tracer based microplate reader analysis; assay type: functional, cell-based
T1 sequence (P48546 whole entry): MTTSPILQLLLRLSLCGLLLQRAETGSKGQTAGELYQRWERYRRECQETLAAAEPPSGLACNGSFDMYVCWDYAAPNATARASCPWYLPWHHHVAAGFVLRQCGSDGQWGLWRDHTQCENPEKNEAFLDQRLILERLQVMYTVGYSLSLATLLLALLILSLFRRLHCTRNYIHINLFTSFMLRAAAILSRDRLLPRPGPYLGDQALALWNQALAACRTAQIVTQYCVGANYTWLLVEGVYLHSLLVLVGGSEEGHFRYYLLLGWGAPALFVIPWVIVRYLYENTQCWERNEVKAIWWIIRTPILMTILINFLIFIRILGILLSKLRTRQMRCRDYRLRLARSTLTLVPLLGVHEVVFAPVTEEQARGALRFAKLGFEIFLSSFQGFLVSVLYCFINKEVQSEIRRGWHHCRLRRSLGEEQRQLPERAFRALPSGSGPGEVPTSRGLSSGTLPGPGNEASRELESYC

Mus musculus [2] = assay: Glucose-lowering effect in male ICR mouse assessed as reduction in plasma glucose AUC (0 to 72 hrs) at 30 nmol/kg, sc pretreated for 71 hrs followed by […] administration and measured after 60 mins by oral glucose tolerance test; assay type: functional, organism-based
[3] = target: Glucagon-like peptide 1 receptor (Homo sapiens, UniProt P43220); assay: Agonist activity at human GLP-1R expressed in CHO cells assessed as increase in cAMP production incubated for 30 mins by Eu-cAMP tracer based microplate reader analysis; assay type: functional, cell-based
Sequence of Glucagon-like peptide 1 receptor (P43220 whole entry): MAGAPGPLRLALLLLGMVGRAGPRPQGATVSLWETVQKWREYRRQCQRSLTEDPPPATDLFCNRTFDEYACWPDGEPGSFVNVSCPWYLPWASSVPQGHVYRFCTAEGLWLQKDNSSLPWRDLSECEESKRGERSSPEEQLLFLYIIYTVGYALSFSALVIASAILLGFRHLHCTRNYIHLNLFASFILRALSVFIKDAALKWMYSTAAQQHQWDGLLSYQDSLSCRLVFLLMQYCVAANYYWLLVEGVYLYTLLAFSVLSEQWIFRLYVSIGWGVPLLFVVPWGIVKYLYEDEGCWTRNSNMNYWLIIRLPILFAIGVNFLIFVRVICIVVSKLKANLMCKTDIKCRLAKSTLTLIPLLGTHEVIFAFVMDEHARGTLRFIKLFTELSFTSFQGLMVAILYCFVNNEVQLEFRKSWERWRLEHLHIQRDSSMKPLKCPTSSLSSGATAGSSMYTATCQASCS

Mus musculus [4] = assay: Increase in body weight in male ICR mouse at 30 nmol/kg, sc measured after 2 days; assay type: functional, organism-based; conditions: time 2.0 day
Mus musculus [5] = assay: Anti-obesity activity in male C57/B16 mouse model of diet-induced obesity assessed as reduction in body weight at 10 nmol/kg, sc administered every 3 days for 46 days and measured every 3 days relative to control; assay type: functional; design: scale not given: the % may be the effect or the level left; conditions: time 46.0 day
Mus musculus [6] = assay: Hypoglycemic effect in male db/db mouse model assessed as reduction in body weight at 30 nmol/kg, sc administered every 3 days for 60 days and measured every 3 days; assay type: functional, organism-based; conditions: time 60.0 day
Mus musculus [7] = assay: Reduction in body weight in male ICR mouse at 30 nmol/kg, sc measured for 4 days; assay type: functional, organism-based; conditions: time 4.0 day
Mus musculus [8] = assay: Hypoglycemic effect in male db/db mouse model assessed as reduction in HbA1c level at 30 nmol/kg, sc administered every 3 days for 60 days and measured on day 18, 31, 37, 52, 58 and 60 by auto-chemistry analyzer; assay type: functional, organism-based; conditions: time 60.0 day
Mus musculus [9] = assay: Hypoglycemic effect in male db/db mouse model assessed as blood glucose level at 30 nmol/kg, sc administered every 3 days for 31 days and measured 72 hrs post each dose; assay type: functional, organism-based; conditions: time 31.0 day

In the case of `CC(C)C[C@H](NC(=O)[C@H](CC(C)C)NC(=O)[C@H](Cc1c[nH]c2ccccc12)NC(=O)[C@H](CCC(N)=O)NC(=O)[C@@H](NC(=O)[C@H](Cc1ccccc1)NC(=O)[C@H](CC(C)C)NC(=O)[C@H](CSCC(=O)NCCCC[C@H](NC(=O)CC[C@H](NC(=O)CC[C@H](NC(=O)COCCOCCNC(=O)CCCCCCCCCCCCCCCCCCC(=O)O)C(=O)O)C(=O)O)C(=O)O)NC(=O)[C@H](C)NC(=O)[C@H](C)NC(=O)[C@H](CCC(N)=O)NC(=O)[C@H](CCCCN)NC(=O)[C@H](CCC(=O)O)NC(=O)[C@H](CC(C)C)NC(=O)[C@H](Cc1ccc(O)cc1)NC(=O)[C@H](Cc1ccc(O)cc1)NC(=O)[C@H](CO)NC(=O)[C@H](Cc1ccc(O)cc1)NC(=O)[C@H](CC(=O)O)NC(=O)[C@H](CO)NC(=O)[C@@H](NC(=O)[C@H](Cc1ccccc1)NC(=O)[C@@H](NC(=O)CNC(=O)[C@H](CCC(=O)O)NC(=O)C(C)(C)NC(=O)[C@@H](N)Cc1ccc(O)cc1)[C@@H](C)O)[C@@H](C)O)C(C)C)C(=O)N[C@@H](C)C(=O)NCC(=O)NCC(=O)N1CCC[C@H]1C(=O)N[C@@H](CO)C(=O)N[C@@H](CO)C(=O)NCC(=O)N[C@@H](C)C(=O)N1CCC[C@H]1C(=O)N1CCC[C@H]1C(=O)N1CCC[C@H]1C(=O)N[C@@H](CO)C(N)=O` (H-Y[Aib]EGTFTSDYSYYLEKQAAC(X4)LFVQWLLAGGPSSGAPPPS-NH2), the EC50 [1] is reported as 0.73 nM, the Activity (Mus musculus [2]) is reported as “Active” and the EC50 [3] is reported as 1.25 nM.
In the case of `CC(C)C[C@H](NC(=O)[C@H](CC(C)C)NC(=O)[C@H](Cc1c[nH]c2ccccc12)NC(=O)[C@H](CCC(N)=O)NC(=O)[C@@H](NC(=O)[C@H](Cc1ccccc1)NC(=O)[C@H](CC(C)C)NC(=O)[C@H](CCCCN)NC(=O)[C@H](C)NC(=O)[C@H](C)NC(=O)[C@H](CCC(N)=O)NC(=O)[C@H](CCCCN)NC(=O)[C@H](CCC(=O)O)NC(=O)[C@H](CC(C)C)NC(=O)[C@H](CSCC(=O)NCCCC[C@H](NC(=O)CC[C@H](NC(=O)CC[C@H](NC(=O)COCCOCCNC(=O)CCCCCCCCCCCCCCCCC(=O)O)C(=O)O)C(=O)O)C(=O)O)NC(=O)[C@H](Cc1ccc(O)cc1)NC(=O)[C@H](CO)NC(=O)[C@H](Cc1ccc(O)cc1)NC(=O)[C@H](CC(=O)O)NC(=O)[C@H](CO)NC(=O)[C@@H](NC(=O)[C@H](Cc1ccccc1)NC(=O)[C@@H](NC(=O)CNC(=O)[C@H](CCC(=O)O)NC(=O)C(C)(C)NC(=O)[C@@H](N)Cc1ccc(O)cc1)[C@@H](C)O)[C@@H](C)O)C(C)C)C(=O)N[C@@H](C)C(=O)NCC(=O)NCC(=O)N1CCC[C@H]1C(=O)N[C@@H](CO)C(=O)N[C@@H](CO)C(=O)NCC(=O)N[C@@H](C)C(=O)N1CCC[C@H]1C(=O)N1CCC[C@H]1C(=O)N1CCC[C@H]1C(=O)N[C@@H](CO)C(N)=O` (H-Y[Aib]EGTFTSDYSYC(X3)LEKQAAKLFVQWLLAGGPSSGAPPPS-NH2), the Activity (Mus musculus [4]) is reported as “Active”, the EC50 [1] is reported as 0.14 nM and the EC50 [3] is reported as 0.29 nM.
With `CC(C)C[C@H](NC(=O)[C@H](CC(C)C)NC(=O)[C@H](Cc1c[nH]c2ccccc12)NC(=O)[C@H](CCC(N)=O)NC(=O)[C@@H](NC(=O)[C@H](Cc1ccccc1)NC(=O)[C@H](CC(C)C)NC(=O)[C@H](CCCCN)NC(=O)[C@H](C)NC(=O)[C@H](C)NC(=O)[C@H](CCC(N)=O)NC(=O)[C@H](CCCCN)NC(=O)[C@H](CCC(=O)O)NC(=O)[C@H](CC(C)C)NC(=O)[C@H](CSCC(=O)NCCCC[C@H](NC(=O)CC[C@H](NC(=O)CC[C@H](NC(=O)COCCOCCNC(=O)CCCCCCCCCCCCCCCCCCC(=O)O)C(=O)O)C(=O)O)C(=O)O)NC(=O)[C@H](Cc1ccc(O)cc1)NC(=O)[C@H](CO)NC(=O)[C@H](Cc1ccc(O)cc1)NC(=O)[C@H](CC(=O)O)NC(=O)[C@H](CO)NC(=O)[C@@H](NC(=O)[C@H](Cc1ccccc1)NC(=O)[C@@H](NC(=O)CNC(=O)[C@H](CCC(=O)O)NC(=O)C(C)(C)NC(=O)[C@@H](N)Cc1ccc(O)cc1)[C@@H](C)O)[C@@H](C)O)C(C)C)C(=O)N[C@@H](C)C(=O)NCC(=O)NCC(=O)N1CCC[C@H]1C(=O)N[C@@H](CO)C(=O)N[C@@H](CO)C(=O)NCC(=O)N[C@@H](C)C(=O)N1CCC[C@H]1C(=O)N1CCC[C@H]1C(=O)N1CCC[C@H]1C(=O)N[C@@H](CO)C(N)=O` (H-Y[Aib]EGTFTSDYSYC(X4)LEKQAAKLFVQWLLAGGPSSGAPPPS-NH2) the EC50 [1] was 0.064 nM, the Activity (Mus musculus [2]) was “Active” and the EC50 [3] was 0.25 nM.
TIRZEPATIDE was tested, and the Activity (Mus musculus [5]) was 21%, the Activity (Mus musculus [6]) was “Active” and the Activity (Mus musculus [7]) was “Active”. The Activity (Mus musculus [8]) was “Active” and the Activity (Mus musculus [9]) was “Active”.
